Assay results: patent publication US20090175969A1, “Formulation for treating obesity and associated metabolic syndrome” (priority 2004, published 2009)

Legend:
pancreatic lipase = target: T1, pancreatic lipase (Homo sapiens, UniProt P16233); experiment: in vitro effect on the activity of pancreatic lipase; type: biochemical; settings: concentration of 10 mg, after 45 and 60 minutes, 37° C.
T1 sequence (P16233 17-465): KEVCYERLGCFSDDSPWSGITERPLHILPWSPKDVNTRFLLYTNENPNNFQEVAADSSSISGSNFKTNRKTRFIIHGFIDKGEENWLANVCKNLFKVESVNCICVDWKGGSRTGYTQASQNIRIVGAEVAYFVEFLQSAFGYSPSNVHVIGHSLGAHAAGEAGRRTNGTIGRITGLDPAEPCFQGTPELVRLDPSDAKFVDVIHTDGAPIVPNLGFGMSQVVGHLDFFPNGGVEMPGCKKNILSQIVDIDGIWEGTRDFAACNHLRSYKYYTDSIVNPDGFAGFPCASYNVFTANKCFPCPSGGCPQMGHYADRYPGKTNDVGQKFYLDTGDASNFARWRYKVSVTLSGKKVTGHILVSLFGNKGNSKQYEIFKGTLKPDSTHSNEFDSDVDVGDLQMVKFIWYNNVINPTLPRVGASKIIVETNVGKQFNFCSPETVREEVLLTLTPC
From the text: The composition of the formulation of the invention is presented below in the Table 1: […]

lipase = settings: human, three capsules of 120 mg daily; cited from earlier work

Q: With CCCCCCCCCCC[C@@H](C[C@@H]1OC(=O)[C@H]1CCCCCC)OC(=O)[C@H](CC(C)C)NC=O (relative stereo) [Xenical®, ([2S-[2a(R*),3b]]N-formyl-L-leucine 1-[(3-hexyl-4-oxo-2-oxetanyl)methyl]dodecyl ester)] as the compound, how does the “inhibition of lipase activity” value (pancreatic lipase) read?
A: complete inhibition

Q: What about the “consumed fat that goes through the digestive tract without decomposition and is not absorbed” value (lipase) of the same compound?
A: 30%
